Converted amounts (≈) assume the structure as drawn.
Experiments:
HCT-116 cell line = assay: MTT assay, HCT-116 cell line; format: cell-based, human; conditions: for Cytotoxicity at 5 µg/l: HCT116, 5 µg/l; for Cytotoxicity at 5 µg/l / Cytotoxicity at 10 µg/l / Cytotoxicity at 20 µg/l: MTT, 24 hr treatment, in % (unit assumed); for Cytotoxicity at 10 µg/l: HCT116, 10 µg/l; for Cytotoxicity at 20 µg/l: HCT116, 20 µg/l; for IC50: Homo sapiens, HCT-116, HCT116, MTT, read-out: IC50 (drug concentration that inhibited 50% of cell proliferation)
Outline: (§1)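 Cells in RPMI-1640 with 10% FBS were seeded at 1.0x10^4 cells/well and cultured 48 h, then exposed to compound for 24 hr. Viability was measured by MTT reduction (4 hr), with formazan dissolved in DMSO and read at 570 nm, relative to untreated cells. Values are means of three independent triplicate experiments.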

[1] = biological target: T1, Tropomyosin receptor kinase A (TrKA) (Homo sapiens, UniProt P04629); assay: Tropomyosin receptor kinase A (TrKA) inhibitory assay (Kinase-Glo MAX kit); format: biochemical; conditions: in vitro kinase assay, recombinant TrkA
T1 construct: purchased
T1 sequence (P04629 33-796): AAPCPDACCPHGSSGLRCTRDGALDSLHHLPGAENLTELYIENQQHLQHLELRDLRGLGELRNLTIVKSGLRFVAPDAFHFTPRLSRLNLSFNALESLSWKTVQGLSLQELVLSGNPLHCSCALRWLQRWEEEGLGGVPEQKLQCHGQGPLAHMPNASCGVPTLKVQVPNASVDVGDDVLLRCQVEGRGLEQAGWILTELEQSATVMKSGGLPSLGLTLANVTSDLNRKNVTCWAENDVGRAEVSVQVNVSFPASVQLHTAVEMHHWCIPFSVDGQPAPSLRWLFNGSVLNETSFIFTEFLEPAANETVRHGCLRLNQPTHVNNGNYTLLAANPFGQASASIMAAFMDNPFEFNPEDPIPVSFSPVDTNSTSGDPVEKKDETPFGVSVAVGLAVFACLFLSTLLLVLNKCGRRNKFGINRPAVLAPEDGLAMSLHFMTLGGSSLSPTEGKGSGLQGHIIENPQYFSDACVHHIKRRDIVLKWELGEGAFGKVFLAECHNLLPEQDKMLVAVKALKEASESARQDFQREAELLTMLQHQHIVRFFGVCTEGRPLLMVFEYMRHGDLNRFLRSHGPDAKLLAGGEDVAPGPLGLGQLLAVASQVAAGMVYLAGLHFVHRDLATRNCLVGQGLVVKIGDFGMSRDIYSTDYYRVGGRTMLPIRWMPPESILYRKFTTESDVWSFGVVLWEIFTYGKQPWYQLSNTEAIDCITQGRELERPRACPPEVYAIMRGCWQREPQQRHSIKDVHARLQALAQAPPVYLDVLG
From the text: (§2) The TrkA assay Kit is designed to measure TrkA activity for screening and profiling applications using Kinase-Glo® MAX as a detection reagent. The TrkA Assay Kit comes in a convenient 96-well format, with enough purified recombinant TrkA enzyme, TrkA substrate, ATP and kinase assay buffer for 100 enzyme reactions. The method was discussed in details in the ESI.
as §2, with “reactions.” for “reactions. The method was discussed in details in the ESI.”
The assay protocol: all samples and controls should be tested in duplicate. Dissolve 5x Kinase Assay Buffer 1, ATP, and PTK Substrate Poly (Glu:Tyr 4:1) (10 mg/ml). 2). The master mixture (25 μl per well) was prepared by N wells x (6 μl 5x Kinase Assay Buffer 1 + 1 μl ATP (500 μM) + 1 μl PTK Substrate Poly (Glu:Tyr 4:1) (10mg/ml) + 17 μl water). Add 5 μl of Inhibitor solution of each well labeled as “Test Inhibitor”. For the “Positive Control" and “Blank”, add 5 μl of the same solution without inhibitor (Inhibitor buffer). Prepare 3 ml of 1x Kinase assay buffer 1 by mixing 600 μl of 5x Kinase assay buffer 1 with 2400 μl water 3 ml of 1x Kinase assay buffer is sufficient for 100 reactions. To the wells designated as "Blank", add 20 μl of 1x Kinase assay buffer 1and thaw TrkA enzyme on ice. Upon first thaw, briefly spin tube containing enzyme to recover full content of the tube. Calculate the amount of TrkA required for the assay and dilute enzyme to 5 ng/μl with 1x Kinase assay buffer. Store remaining undiluted enzyme in aliquots at -80°C. Then initiate reaction by adding 20 μl of diluted TrkA enzyme to the wells designated “Positive Control” and "Test Inhibitor Control". Incubate at 30°C for 45minutes and thaw Kinase-Glo Max reagent. After the 45 minute reaction, add 50 μl of Kinase-Glo Max reagent to each well. Cover plate with aluminum foil and incubate the plate at room temperature for 15 minutes. Immediately read sample in a luminometer or microtiter-plate capable of reading chemiluminescence. “Blank” value is subtracted from all readings.

HepG2 cell line = assay: MTT assay, HepG2 cell line; format: cell-based, human; conditions: for Cytotoxicity at 5 µg/l: HepG2, 5 µg/l; for Cytotoxicity at 5 µg/l / Cytotoxicity at 10 µg/l / Cytotoxicity at 20 µg/l: MTT, 24 hr treatment, in % (unit assumed); for Cytotoxicity at 10 µg/l: HepG2, 10 µg/l; for Cytotoxicity at 20 µg/l: HepG2, 20 µg/l; for IC50: Homo sapiens, HepG2, MTT, read-out: IC50 (drug concentration that inhibited 50% of cell proliferation)
Outline: as §1

Row | Structure (SMILES) | Cytotoxicity at 5 µg/l (HCT-116 cell line) | Cytotoxicity at 10 µg/l (HCT-116 cell line) | Cytotoxicity at 20 µg/l (HCT-116 cell line) | IC50 (HCT-116 cell line) | IC50 [1] | Cytotoxicity at 5 µg/l (HepG2 cell line) | Cytotoxicity at 10 µg/l (HepG2 cell line) | Cytotoxicity at 20 µg/l (HepG2 cell line) | IC50 (HepG2 cell line)
1 | COc1ccc(C=C2C(=O)NC(=O)c3c2nn2c(C)cc(C)nc32)cc1 [Compound 7b] | 67.87 | 70.12 | 91.94 | 2.49 ng/mL (≈ 0.00714 µM) | 184 nM | 55.11 | 69.08 | 85.16 | 4.25 ng/mL (≈ 0.0122 µM)
2 | Cc1cc(O)n2nc3c(c2n1)C(=O)NC(=O)C3=NNc1ccccc1 [Compound 16a, 4-Hydroxy-2-methyl-7-(2-phenylhydrazono)pyrido[4ʹ,3ʹ:3,4]pyrazolo[1,5-a]pyrimid-ine-8,10(7H,9H)-dione] | 54.16 | 74.90 | 87.26 | 4.37 ng/mL (≈ 0.013 µM) | 214 nM | 54.39 | 66.36 | 72.80 | 3.56 ng/mL (≈ 0.0106 µM)
3 | COc1ccc(NN=C2C(=O)NC(=O)c3c2nn2c(O)cc(C)nc32)cc1 [Compound 16c, 4-Hydroxy-7-(2-(4-methoxyphenyl)hydrazono)-2-methylpyrido[4ʹ,3ʹ:3,4]pyrazolo[1,5-a]pyrimidine-8,10(7H,9H)-dione] | 55.98 | 78.34 | 99.23 | 4.5 ng/mL (≈ 0.0123 µM) | 128 nM | 59.17 | 70.57 | 84.32 | 3.43 ng/mL (≈ 0.00935 µM)

From publication PMC10999085, “Synthesis, anticancer evaluation, molecular docking and ADME study of novel pyrido[4ʹ,3ʹ:3,4]pyrazolo[1,5-a]pyrimidines as potential tropomyosin receptor kinase A (TrKA) inhibitors” (BMC Chemistry, 2024)
